Assays:
[1] = target: T1, Metabotropic glutamate receptor 5 (Rattus norvegicus, UniProt P31424); experiment: Inhibition of mGluR5 in rat embryo neuronal culture assessed as calcium level by Fluo-4/AM dye based fluorometry; type: functional
[2] = target: T1, Metabotropic glutamate receptor 5; experiment: Displacement of [3H]-M-MPEP from mGluR5 in rat cerebrocortical membrane preparation; type: cell membranes
Rattus norvegicus = experiment: Anxiolytic activity in ip dosed rat assessed as increase in number of shocks measured for 30 mins Vogel punished drinking model; type: functional, organism-based
[3] = target: Metabotropic glutamate receptor 5 (Rattus norvegicus) (UniProt P31424); experiment: Displacement of [3H]-M-MPEP from mGluR5 in rat cerebrocortical membrane preparation at 1 uM; type: cell membranes
Metabotropic glutamate receptor 5 (Rattus norvegicus), sequence (P31424 21-1203 limits assumed): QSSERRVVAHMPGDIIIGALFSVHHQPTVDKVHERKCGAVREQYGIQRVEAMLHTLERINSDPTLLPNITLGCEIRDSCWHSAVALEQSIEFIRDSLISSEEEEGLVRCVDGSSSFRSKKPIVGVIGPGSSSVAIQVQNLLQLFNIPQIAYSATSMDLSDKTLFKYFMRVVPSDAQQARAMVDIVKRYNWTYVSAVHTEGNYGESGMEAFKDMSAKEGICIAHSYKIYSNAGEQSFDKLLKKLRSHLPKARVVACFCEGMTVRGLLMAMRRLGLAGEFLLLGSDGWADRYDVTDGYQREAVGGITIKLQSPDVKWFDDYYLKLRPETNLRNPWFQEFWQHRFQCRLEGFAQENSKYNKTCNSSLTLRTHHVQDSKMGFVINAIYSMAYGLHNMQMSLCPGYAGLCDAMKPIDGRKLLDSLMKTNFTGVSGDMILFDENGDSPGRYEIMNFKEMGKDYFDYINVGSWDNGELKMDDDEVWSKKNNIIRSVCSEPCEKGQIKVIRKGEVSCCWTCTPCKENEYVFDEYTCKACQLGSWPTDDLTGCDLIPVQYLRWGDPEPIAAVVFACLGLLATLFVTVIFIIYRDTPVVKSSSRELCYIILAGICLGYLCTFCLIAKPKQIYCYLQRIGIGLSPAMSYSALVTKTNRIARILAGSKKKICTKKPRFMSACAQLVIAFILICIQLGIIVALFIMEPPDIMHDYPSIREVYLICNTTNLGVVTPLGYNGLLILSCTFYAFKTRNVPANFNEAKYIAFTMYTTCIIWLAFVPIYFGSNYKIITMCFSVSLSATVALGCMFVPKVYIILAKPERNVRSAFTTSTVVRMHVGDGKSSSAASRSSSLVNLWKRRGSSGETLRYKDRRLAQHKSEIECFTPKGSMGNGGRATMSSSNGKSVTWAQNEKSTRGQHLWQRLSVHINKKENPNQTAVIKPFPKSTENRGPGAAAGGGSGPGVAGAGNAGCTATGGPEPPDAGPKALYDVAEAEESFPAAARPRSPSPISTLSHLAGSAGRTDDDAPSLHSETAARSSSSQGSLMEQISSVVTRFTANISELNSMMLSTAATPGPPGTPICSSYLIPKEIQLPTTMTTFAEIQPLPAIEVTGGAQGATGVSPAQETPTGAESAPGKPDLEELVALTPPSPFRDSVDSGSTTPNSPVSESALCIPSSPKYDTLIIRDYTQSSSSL

T1 sequence (P31424 whole entry): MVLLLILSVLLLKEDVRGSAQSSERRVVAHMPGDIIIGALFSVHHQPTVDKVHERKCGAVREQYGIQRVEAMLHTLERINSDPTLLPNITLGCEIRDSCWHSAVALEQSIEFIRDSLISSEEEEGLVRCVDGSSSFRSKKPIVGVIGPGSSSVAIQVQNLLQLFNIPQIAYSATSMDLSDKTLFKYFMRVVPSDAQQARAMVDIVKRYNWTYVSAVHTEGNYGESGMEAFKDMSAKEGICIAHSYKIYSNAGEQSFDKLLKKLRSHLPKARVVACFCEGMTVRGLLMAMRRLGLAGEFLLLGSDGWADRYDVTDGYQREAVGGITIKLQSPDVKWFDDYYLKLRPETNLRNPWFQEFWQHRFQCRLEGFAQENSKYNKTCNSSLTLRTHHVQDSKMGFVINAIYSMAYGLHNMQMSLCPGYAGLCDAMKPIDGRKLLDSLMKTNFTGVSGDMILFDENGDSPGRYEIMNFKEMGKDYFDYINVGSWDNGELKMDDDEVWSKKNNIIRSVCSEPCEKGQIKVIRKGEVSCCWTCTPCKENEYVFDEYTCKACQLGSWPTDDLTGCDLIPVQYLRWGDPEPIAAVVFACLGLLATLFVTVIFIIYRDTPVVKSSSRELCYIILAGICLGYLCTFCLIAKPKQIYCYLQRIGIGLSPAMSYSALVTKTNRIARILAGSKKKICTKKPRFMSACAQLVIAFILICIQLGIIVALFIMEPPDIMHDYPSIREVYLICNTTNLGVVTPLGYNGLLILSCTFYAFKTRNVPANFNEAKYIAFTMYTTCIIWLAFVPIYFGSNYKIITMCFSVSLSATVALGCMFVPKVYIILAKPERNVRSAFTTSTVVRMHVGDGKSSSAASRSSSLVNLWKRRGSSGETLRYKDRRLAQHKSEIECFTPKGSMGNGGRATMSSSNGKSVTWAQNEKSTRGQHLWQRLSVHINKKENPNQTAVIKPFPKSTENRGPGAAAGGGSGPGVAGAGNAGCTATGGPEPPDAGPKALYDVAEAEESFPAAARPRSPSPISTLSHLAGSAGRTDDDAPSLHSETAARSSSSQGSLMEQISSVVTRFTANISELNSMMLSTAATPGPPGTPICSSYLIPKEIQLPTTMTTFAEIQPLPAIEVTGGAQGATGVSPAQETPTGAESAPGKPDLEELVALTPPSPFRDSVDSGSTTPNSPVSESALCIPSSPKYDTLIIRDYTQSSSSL

Row | SMILES | Ki [2] [nM] | inhibition [3] [%] | other results
1 | O=S(=O)(c1ccc(Cl)cc1)c1sc2ncccc2c1-c1ccc(Cl)cc1 | 12.3 | – | IC50 [1]: 46 nM; Activity (Rattus norvegicus): Dose-dependent effect
2 | O=C(Cc1ccc(F)cc1)c1sc2ncccc2c1-c1ccc(Cl)cc1 | 83 | – | IC50 [1]: 350 nM
3 | O=C(c1ccc(Cl)cc1)c1sc2ncccc2c1-c1ccc(F)cc1 | – | 30 | –
4 | O=C(CCc1cccc(F)c1)c1sc2ncccc2c1-c1ccc(F)cc1 | 224 | – | –
5 | OC(CCc1ccc(F)cc1)c1sc2ncccc2c1-c1ccc(F)cc1 (stereo not given) | – | 3 | –
6 | Fc1ccc(-c2nc(-c3sc4ncccc4c3-c3ccc(Cl)cc3)no2)cc1 | – | 0 | –
7 | O=C(NCc1ccc(F)cc1)c1sc2ncccc2c1-c1ccc(F)cc1 | 311 | – | –
8 | O=C(CCc1ccc(F)cc1)c1sc2ncccc2c1-c1ccc(F)cc1 | 180 | – | IC50 [1]: 1000 nM
9 | Fc1ccc(-c2c(C3=NOC(c4ccc(F)cc4)C3)sc3ncccc23)cc1 (stereo not given) | – | 52 | –
10 | O=C(CCc1ccccc1)c1sccc1-c1ccccc1 | – | 0 | –
11 | O=C(Nc1ccc(F)cc1)c1sc2ncccc2c1-c1ccc(Cl)cc1 | – | 0 | –
12 | Fc1ccc(C/C=C/c2sc3ncccc3c2-c2ccc(F)cc2)cc1 | – | 12 | –
13 | CN(C(=O)c1sc2ncccc2c1-c1ccc(F)cc1)c1ccc(F)cc1 | – | 19 | –
14 | O=C(CCc1ccccc1)c1sccc1-c1ccc(F)cc1 | – | 0 | –
15 | O=C(CCc1ccc(F)cc1)c1[nH]c2ccccc2c1-c1ccc(F)cc1 | – | 4 | –
16 | CC(=O)c1sc2ncccc2c1-c1ccccc1 | – | 17 | –
17 | Fc1ccc(-c2nnc(-c3sc4ncccc4c3-c3ccc(Cl)cc3)o2)cc1 | – | 24 | –
18 | O=C(CCc1ccc(F)cc1)c1sc2ccccc2c1-c1ccc(F)cc1 | – | 8 | –
19 | COc1ccc(CCC(=O)c2sc3ncccc3c2-c2ccccc2)cc1 | 2500 | – | IC50 [1]: 8000 nM
20 | CN(Cc1ccc(F)cc1)C(=O)c1sc2ncccc2c1-c1ccc(Cl)cc1 | – | 13 | –
21 | O=C(Oc1ccc(F)cc1)c1sc2ncccc2c1-c1ccc(Cl)cc1 | – | 15 | –
22 | O=C(CCc1ccc(F)cc1)c1sc2ncccc2c1-c1ccccc1 | 343 | – | IC50 [1]: 2100 nM
23 | Fc1ccc(CCCc2sc3ncccc3c2-c2ccc(F)cc2)cc1 | – | 0 | –
24 | O=C(Cc1ccc(F)cc1)c1sc2ncccc2c1-c1ccc(F)cc1 | 140 | – | –
25 | O=C(OCc1ccc(F)cc1)c1sc2ncccc2c1-c1ccc(Cl)cc1 | 41 | – | IC50 [1]: 150 nM
26 | c1ccc(-c2csc3ncccc23)cc1 | – | 0 | –
27 | O=C(CCc1ccccc1)c1sc2ncccc2c1-c1ccccc1 | 730 | – | IC50 [1]: 3300 nM

From ChEMBL document CHEMBL3352069, “Thieno[2,3-b]pyridines as negative allosteric modulators of metabotropic GluR5 receptors: hit-to-lead optimization” (Bioorg Med Chem Lett, 2014)
